{"source": "paper PMC7134594", "about": "(Chemistry & Biology, 2004)", "origin": "cited, not measured here", "tested_on": "SARS-CoV"}
{"compound": "CSC[C@H](NC(=O)COc1cccc2cnccc12)C(=O)N[C@@H](Cc1ccccc1)[C@H](O)C(=O)N1CSC[C@H]1C(=O)NC(C)(C)C", "note": "[KNI-272]", "values": [{"measurement": "inhibiting replication of SARS-CoV in vitro", "result": "ineffective"}]}
{"compound": "NC(=O)c1ncn([C@@H]2O[C@H](CO)[C@@H](O)[C@H]2O)n1", "note": "[Ribavirin, ribavirin]", "values": [{"measurement": "anti-SARS-CoV activity in vitro", "result": "anti-SARS-CoV activity in vitro, but at concentrations that are cytotoxic"}]}
{"compound": "CC(C)(C)NC(=O)[C@@H]1CN(Cc2cccnc2)CCN1C[C@@H](O)C[C@@H](Cc1ccccc1)C(=O)N[C@H]1c2ccccc2C[C@H]1O", "note": "[indinavir]", "values": [{"measurement": "inhibiting replication of SARS-CoV in vitro", "result": "ineffective"}]}
{"compound": "Cc1cccc(C)c1OCC(=O)N[C@@H](Cc1ccccc1)[C@@H](O)C[C@H](Cc1ccccc1)NC(=O)[C@H](C(C)C)N1CCCNC1=O", "note": "[lopinavir]", "values": [{"measurement": "inhibiting replication of SARS-CoV in vitro", "result": "ineffective"}]}
{"compound": "Cc1c(O)cccc1C(=O)N[C@@H](CSc1ccccc1)[C@H](O)CN1C[C@H]2CCCC[C@H]2C[C@H]1C(=O)NC(C)(C)C", "note": "[nelfinavir]", "values": [{"measurement": "EC50", "setting": "read-out: EC50, inhibition of SARS-CoV replication", "result": 48, "unit": "nM"}]}
{"compound": "CC(C)c1nc(CN(C)C(=O)N[C@H](C(=O)N[C@@H](Cc2ccccc2)C[C@H](O)[C@H](Cc2ccccc2)NC(=O)OCc2cncs2)C(C)C)cs1", "note": "[ritonavir]", "values": [{"measurement": "inhibiting replication of SARS-CoV in vitro", "result": "ineffective"}]}
{"compound": "CC(C)(C)NC(=O)[C@@H]1C[C@@H]2CCCC[C@@H]2CN1C[C@@H](O)[C@H](Cc1ccccc1)NC(=O)[C@H](CC(N)=O)NC(=O)c1ccc2ccccc2n1", "note": "[saquinavir]", "values": [{"measurement": "inhibiting replication of SARS-CoV in vitro", "result": "ineffective"}]}
